For series [1] the following is noted: in vivo; cited from earlier work.
For series [2] the following is noted: follow-ups two weeks after treatment with levosimendan; cited from earlier work.
The test system of series [3] is phosphodiesterase-3 (PDE3). The following applies: cited from earlier work.
A further series relates to PDE4. As to conditions: cited from earlier work.
The test system of series [4] is whole cardiomyocytes and isolated contractile apparatus preparations. As to conditions: cited from earlier work.
For the next series, the system named is heart failure patients. The following applies: cited from earlier work.
In a further series the test system is PH-HFpEF patient. Description: HELP Study: rest and exercise right heart catheterization after 24-hour i.v. levosimendan, Patient 019-002. It counts as in vivo, human. As to conditions: single 24-hour open label lead-in infusion. The method, then: (§1) During the HELP Study, as described in PCT International Application Publication No. WO 2021/126884, the entire contents of which are incorporated by reference, Patient 019-002 was administered empagliflozin shortly after beginning levosimendan therapy.
Specifically, Patient 019-002 had established PH-HFpEF and was initially enrolled into the HELP Trial. The diagnosis of PH-HFpEF was confirmed by rest and exercise right heart catheterization. […] The PCWP of 35 mmHg at rest increased with exercise to 55 mmHg at baseline. […] Thus, levosimendan produced a 40% fall in resting PCWP and a 33% fall in exercise PCWP. In addition, at baseline the CVP was 18 mmHg and increased to 30 mmHg with exercise. Following the 24 hours of i.v. levosimendan the CVP fell to 12 mmHg at rest and to 21 mmHg with exercise. Thus, levosimendan produced a 33% fall in resting CVP, and a 30% fall in CVP with exercise. Accordingly, the response of Patient 019-002 to levosimendan treatment was typical of other patients in the study in terms of improvements to their hemodynamic profile (FIG. 1).

The conditions of series [5]: cited from earlier work.
Another series has as its system PH-HFpEF patients. Description: HELP Study: 6-minute walk distance. The following applies: PH-HFpEF patients of the HELP Study, on average, levosimendan alone. It counts as in vivo, human. The method, then: 6 MWT is the abbreviation for six-minute walk test. 6 MWT is a performance-based test used to measure functional exercise capacity. The 6 MWT measures the distance an individual is able to walk over a total of 6 minutes at a constant and normal pace. (Vandoni et al. 2018)
as §1

Take `C[C@@H]1CC(=O)NN=C1c1ccc(N)cc1` [OR-1855, (R)-6-(4-aminophenyl)-5-methyl-4,5-dihydropyridazin-3(2H)-one]: the “hemodynamic and pharmacologic properties / activity compared with levosimendan” value in [1] is given as “limited activity”. The “concentrations of metabolite at follow-up” value in series [2] is recorded as “detectable”.

Regarding `CC(=O)Nc1ccc(C2=NNC(=O)C[C@H]2C)cc1` [OR-1896, (R)-N-(4-(4-methyl-6-oxo-1,4,5,6-tetrahydropyridazin-3-yl)phenyl) acetamide], the “hemodynamic and pharmacologic properties / activity compared with levosimendan” value in series [1] is reported as “similar”. Further, the “potency in the inhibition of PDE3 compared with levosimendan” value in [3] is “profoundly less potent”. Also, the “concentrations of metabolite at follow-up” value in series [2] is given as “detectable”. Besides, the “potency in the inhibition of PDE4 compared with levosimendan” value with PDE4 is on record as “profoundly less potent”. In [4], the “inotropic effects, potency compared with levosimendan” value is on record as “equipotent”.

Consider `OC[C@H]1O[C@@H](c2ccc(Cl)c(Cc3ccc(O[C@H]4CCOC4)cc3)c2)[C@H](O)[C@@H](O)[C@@H]1O` [empagliflozin], for which, in the series with heart failure patients (EMBRACE HF, PH-HFpEF patients, empagliflozin alone), the “6-minute walk distance or quality of life” value is reported as “did not demonstrate a meaningful difference”. The “exercise capacity as measured by change in six-minute walk distance” value with heart failure patients (EMPERIAL-Preserved and EMPERIAL-Reduced trials, empagliflozin alone) was “neither of these trials showed an improvement”. In the series on heart failure patients (HFpEF, HFrEF or PH-HFpEF patients, empagliflozin alone (EMPERIAL-Preserved, EMPERIAL-Reduced, EMBRACE HF)), the “exercise capacity as measured by a difference in 6 MWD” value was “did not demonstrate a material change”.

In the case of `C[C@@H]1CC(=O)NN=C1c1ccc(NN=C(C#N)C#N)cc1` [levosimendan], the “change in pulmonary capillary wedge pressure (PCWP), FIG. 1” value in the series with PH-HFpEF patient was “decrease”. Moreover, the “plasma concentration profile of the levosimendan metabolite OR-1896” value in [5] (subcutaneous compared with intravenous administration of levosimendan) is on record as “similar”. In addition, in series [5] (subcutaneous compared with intravenous administration), the “plasma concentrations of levosimendan” value was “lower plasma concentrations”. The “improvement of 6-minute walk distance” value in the series on PH-HFpEF patients is “approximately 29 m”.

Source of the values: US20250025460A1, “USE OF A COMBINATION OF LEVOSIMENDAN AND AN SGLT-2 INHIBITOR TO TREAT HEART FAILURE” (Tenax Therapeutics, Inc., priority 2021, published 2025).
